Assay results: patent publication US20110306580A1 (DONG WHA PHARMACEUTICAL CO ., LTD., priority 2009, published 2011)

Test system: ROS17/2.8 cells
Test: Cell growth of ROS17/2.8 cells by the MTT method (formed formazan)
Format: cell-based, rat
Details: for activity at 0.02 µM: Rattus norvegicus, 2×10^−5M Test Compound solution diluted 1000 fold, read-out: Amount of formed formazan, Solution 8 (Test Compound alone); for activity at 0.02 µM / Amount of formed formazan, Solution 10 (a group of a drug combination): percentage to Solution 7 addition group, about 48 hours, average ± standard deviation of four wells; for Relative index of Solution 10 (a group of a drug combination) / Amount of formed formazan, Solution 10 (a group of a drug combination): Test Compound in combination with 1α,25-dihydroxyvitamin D3; for Relative index of Solution 10 (a group of a drug combination) / Relative index of Solution 8 (Test Compound alone): amount of formed formazan, Solution 7 = 1.00
Procedure: 100 μL of a 10% FCS-αMEM comprising either DMSO and ethanol (referred to as Solution 7, hereinafter), a Test Compound solution and ethanol (referred to as Solution 8, hereinafter), a 1α,25-dihydroxyvitamin D3 solution and DMSO (referred to as Solution 9, hereinafter) or a Test Compound solution and the 1α,25-dihydroxyvitamin D3 solution (referred to as Solution 10, hereinafter) was dispensed. The ROS17/2.8 cells were inoculated to a medium at a density of 5×10^3 cells/100 μL/well. After culture of the cells for about 48 hours, the effect of Test Compound and 1α,25-dihydroxyvitamin D3 on the cell growth of the ROS17/2.8 cells was evaluated using the MTT method. Namely, after culture of the cells for about 44 hours, an MTT solution (3-[4,5-dimethylthiazol-2-yl]-2,5-diphenyltetrazolium bromide 2 mg/mL) was added in an amount of 25 μL/well, and the cells were further cultured for four hours. After the medium was removed, DMSO was added in an amount of 100 μL/well so as to dissolve the formed formazan. The amount of the formed formazan was determined by measuring the absorbance (at 560 nm) of the solution by a microplate reader.
The 10% FCS-αMEM comprising Solution 7 was prepared by diluting DMSO by 1000 fold with the 10% FCS-αMEM, and diluting ethanol by 10000 fold with the 10% FCS-αMEM. The 10% FCS-αMEM comprising Solution 8 was prepared by diluting a 2×10^−5M Test Compound solution by 1000 fold with the 10% FCS-αMEM, and diluting ethanol by 10000 fold with the 10% FCS-αMEM. The 10% FCS-αMEM comprising Solution 9 was prepared by diluting 2×10^−3M 1α,25-dihydroxyvitamin D3 solution by 10000 fold with the 10% FCS-αMEM, and diluting DMSO by 1000 fold with the 10% FCS-αMEM. The 10% FCS-αMEM comprising Solution 10 was prepared by diluting a 2×10^−5M Test Compound solution by 1000 fold with the 10% FCS-αMEM, and diluting 2×10^−3M 1α,25-dihydroxyvitamin D3 solution by 10000 fold with the 10% FCS-αMEM.
The amount of the formed formazan in each solution addition group was obtained in terms of a percentage to the average value of the amounts of formed formazan in four wells in a Solution 7 addition group. All the determined values were shown in terms of the average value±standard deviation of the four wells of each solution addition group.

Compound	activity at 0.02 µM [%]	Relative index of Solution 10 (a group of a drug combination)	Amount of formed formazan, Solution 10 (a group of a drug combination)	Relative index of Solution 8 (Test Compound alone)
CCc1nc(-c2ccc(OCCCCCOc3ccc(/C(N)=N/O)cc3)cc2)c(CC2CCCC2)s1 [Compound 4, N-hydroxy-4-{5-[4-(5-cyclopentylmethyl-2-ethyl-1,3-thiazol-4-yl)phenoxy]pentoxy}benzamidine]	105 ± 1.9	1.12	112 ± 1.6 # %	1.05
CCc1sc(N(C)Cc2ccccc2)nc1-c1ccc(OCCCCCOc2ccc(/C(N)=N/O)cc2)cc1 [Compound 10, N-hydroxy-4-{5-[4-(2-benzylmethylamino-5-ethyl-1,3-thiazol-4-yl)phenoxy]pentoxy}benzamidine]	99 ± 2.5	1.11	111 ± 1.3 # %	0.99
Cc1nc(-c2ccc(OCc3cccc(COc4ccc(/C(N)=N/O)cc4)c3)cc2)c(C(C)C)s1 [Compound 22, N-hydroxy-4-{3-[4-(5-isopropyl-2-methyl-1,3-thiazol-4-yl)phenoxymethyl]benzyloxy}benzamidine]	110 ± 4.1	1.22	122 ± 2.1 ## %	1.10
CN(C)CCc1sc(C2CCCCC2)nc1-c1ccc(OCCCCCOc2ccc(/C(N)=N/O)cc2)cc1 [Compound 28, N-hydroxy-4-{5-[4-(2-cyclohexyl-5-(2-(dimethylamino)ethyl)-1,3-thiazol-4-yl)phenoxy]pentoxy}benzamidine]	99 ± 3.5	1.11	111 ± 2.0 # %	0.99
CCCN(CCC)c1nc(-c2ccc(OCCCCCOc3ccc(/C(N)=N/O)cc3)cc2)c(C(C)C)s1 [Compound 16, N-hydroxy-4-{5-[4-(5-isopropyl-2-dipropylamino-1,3-thiazol-4-yl)phenoxy]pentoxy}benzamidine]	107 ± 1.3	1.18	118 ± 3.7 # %	1.07
Cc1sc(N(C)Cc2ccccc2)nc1-c1ccc(OCCCCCOc2ccc(/C(N)=N/O)cc2)cc1 [Compound 8, N-hydroxy-4-{5-[4-(2-benzylmethylamino-5-methyl-1,3-thiazol-4-yl)phenoxy]pentoxy}benzamidine]	102 ± 4.9	1.15	115 ± 2.3 ## %	1.02
CC(C)c1sc(N(C)C)nc1-c1ccc(OCCCCCOc2ccc(/C(N)=N/O)cc2)cc1 [Compound 17, N-hydroxy-4-{5-[4-(5-isopropyl-2-dimethylamino-1,3-thiazol-4-yl)phenoxy]pentoxy}benzamidine]	97 ± 1.3	1.13	113 ± 1.7 # %	0.97
N/C(=N\O)c1ccc(OCCCCCOc2ccc(-c3nc(-c4cccnc4)sc3Cc3ccccc3)cc2)cc1 [Compound 2, N-hydroxy-4-{5-[4-(5-benzyl-2-(pyridin-3-yl)-1,3-thiazol-4-yl]phenoxy]pentoxy}benzamidine]	103 ± 3.1	1.17	117 ± 2.6 # %	1.03
CCCN(CCC)c1nc(-c2ccc(OCCCCCOc3ccc(/C(N)=N/O)cc3)cc2)c(CC2CCCC2)s1 [Compound 14, N-hydroxy-4-{5-[4-(5-cyclopentylmethyl-2-dipropylamino-1,3-thiazol-4-yl)phenoxy]pentoxy}benzamidine]	103 ± 2.5	1.13	113 ± 1.3 # %	1.03
Cc1nc(-c2ccc(OCCCCCOc3ccc(/C(N)=N/O)cc3)cc2)c(CCn2ccnc2)s1 [Compound 23, N-hydroxy-4-{5-[4-(5-(2-(imidazol-1-yl)ethyl)-2-methyl-1,3-thiazol-4-yl)phenoxy]pentoxy}benzamidine]	107 ± 5.5	1.23	123 ± 10.2 # %	1.07
CCN(CC)CCc1sc(C)nc1-c1ccc(OCCCCCOc2ccc(/C(N)=N/O)cc2)cc1 [Compound 26, N-hydroxy-4-{5-[4-(5-(2-diethylaminoethyl)-2-methyl-1,3-thiazol-4-yl)phenoxy]pentoxy}benzamidine]	102 ± 2.6	1.13	113 ± 2.7 # %	1.02
CCCCc1sc(N(C)CCN2CCOCC2)nc1-c1ccc(OCCCCCOc2ccc(/C(N)=N/O)cc2)cc1 [Compound 13, N-hydroxy-4-{5-[4-(5-butyl-2-(methyl(2-(4-morpholino)ethyl)amino)-1,3-thiazol-4-yl)phenoxy]pentoxy}benzamidine]	103 ± 5.2	1.13	113 ± 2.1 # %	1.03
Cc1sc(N(C)CCO)nc1-c1ccc(OCCCCCOc2ccc(/C(N)=N/O)cc2)cc1 [Compound 7]	109 ± 3.2	1.20	120 ± 2.3 ## %	1.09
Cc1sc(N(C)Cc2cccnc2)nc1-c1ccc(OCCCCCOc2ccc(/C(N)=N/O)cc2)cc1 [Compound 9, N-hydroxy-4-{5-[4-(5-methyl-2-(methyl(pyridin-3-ylmethyl)amino)-1,3-thiazol-4-yl)phenoxy]pentoxy}benzamidine]	108 ± 2.3	1.20	120 ± 2.1 ## %	1.08
CC(C)c1nc(-c2ccc(OCCCCCOc3ccc(/C(N)=N/O)cc3)cc2)c(CCN(C(=O)c2ccncc2)C2CC2)s1 [Compound 30, N-hydroxy-4-{5-[4-(5-(2-(cyclopropyl(pyridin-4-carbonyl)amino)ethyl}-2-isopropyl-1,3-thiazol-4-yl)phenoxy]pentoxy}benzamidine]	99 ± 5.3	1.13	113 ± 1.2 ## %	0.99
CN(CCN1CCOCC1)c1nc(-c2ccc(OCCCCCOc3ccc(/C(N)=N/O)cc3)cc2)c(C2CCCC2)s1 [Compound 15, N-hydroxy-4-{5-[4-(5-cyclopentyl-2-(methyl(2-(4-morpholino)ethyl)amino)-1,3-thiazol-4-yl)phenoxy]pentoxy}benzamidine]	103 ± 3	1.15	115 ± 0.8 ## %	1.03
